We go through 18 molecules from patent publication US6479515B1, “Heterocyclic benzenesulphonamide compounds as bradykinine antagonists” (Fournier Industrie et Sante, priority 1999, dated 2002).

In one experiment the target is T1, bradykinin B2 receptor (Homo sapiens, UniProt P30411).
T1 construct: from tissue; host or cells: isolated human umbilical vein
T1 sequence (P30411 1-391): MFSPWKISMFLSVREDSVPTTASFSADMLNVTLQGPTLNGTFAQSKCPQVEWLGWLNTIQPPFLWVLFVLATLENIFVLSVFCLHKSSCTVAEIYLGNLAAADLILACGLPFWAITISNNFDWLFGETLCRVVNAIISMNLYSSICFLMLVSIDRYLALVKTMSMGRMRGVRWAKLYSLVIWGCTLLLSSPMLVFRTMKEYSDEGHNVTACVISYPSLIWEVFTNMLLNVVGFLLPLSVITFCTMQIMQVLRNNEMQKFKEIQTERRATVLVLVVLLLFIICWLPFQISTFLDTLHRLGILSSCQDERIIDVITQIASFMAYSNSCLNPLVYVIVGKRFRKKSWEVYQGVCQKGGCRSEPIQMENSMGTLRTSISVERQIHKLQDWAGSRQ
As to the kind of experiment: inhibition of the contraction of the isolated human umbilical vein in the presence of bradykinin. It is filed as cell-based. The source says:
This antagonist character is expressed by the value pA2, calculated according to a biological test employed in order to measure the inhibition of the contraction of the isolated human umbilical vein by the compounds according to the invention in the presence of bradykinin. The test procedure and the method of calculation of pA2 are described in the articles of D. Pruneau et al. published in Br. J. Pharmacol. 1998, 125, p 365-372 and J L. Paquet et al. Br. J. Pharmacol. 1999, 126 (in print).

For another experiment, the target named is T2, human B2 receptor (Homo sapiens, UniProt P30411).
T2 construct: expressed in transfected cells; host or cells: CHO cells (membranes)
T2 sequence (P30411 1-391): T1 sequence (P30411 1-391)
As to the kind of experiment: competitive binding test on CHO cell membranes expressing the human B2 receptor using [3H]-bradykinin as ligand. The protocol:
The activity of the products according to the invention was evaluated, according to a first aspect, as a function of their aptitude to bind to the bradykinin B2 receptors. […] It is likewise known that bradykinin is amongst one of the most powerful algesic agents known. The mode of action of kinins and more particularly of bradykinin makes a coupling of the peptides to the two types of receptors called B1 and B2 respectively take place. The B2 receptor belongs to the large family of receptors with seven transmembrane domains coupled to the G proteins and seems to be more particularly involved in the field of the pathologies mentioned above. This is the reason why the products of the invention, which have the property of being able to bind to the B2 receptor, inhibit the binding of bradykinin and, consequently, suppress its harmful activity. The test employed in order to measure this property is a competitive binding test on CHO cell membranes expressing the human B2 receptor using bradykinin labelled with tritium ([^3H]-bradykinin) as ligand.
The results are expressed by the Ki value, as calculated according to the recommended method with the description of the test employed and described according to D. Pruneau et al., in Br. J. Pharmacol. 1998, 125 p 365-372.

Where [1] appears, read: isolated human umbilical vein, contraction in the presence of bradykinin.
The mark [2] stands for this setting: isolated human umbilical vein, contraction in the presence of bradykinin, read-out: pA2 (converted).

Counter-ions that a name gives are not always drawn. Like-named read-outs stand apart in the source and are kept apart here.

As usually defined, the pA2 is the negative logarithm of the molar antagonist concentration that doubles the agonist concentration needed for the same response. As usually defined, the Ki is a dissociation constant, usually derived from enzyme kinetics or from competition with a known ligand. A lower Ki goes with tighter binding. For the molecule “1-[[2,4-Dichloro-3-[[2(L)-[[4-(2-pyridinyl)-1-piperazinyl]carbonyl]-1-pyrrolidinyl]sulphonyl]-N-methyl-N-[3-[[3-(hydroxy)propyl]-(methyl)amino]propyl]-2(S)-pyrrolidinecarboxamide, methanesulphonate [Example 105]”, at bradykinin B2 receptor (setting [1]), the pA2 stood at 8.3. At human B2 receptor, the affinity, expressed as Ki, was 7.7 nM.
Take “1-[[2,4-Dichloro-3-[[[4-(1H-imidazol-1-yl)-2-methyl-8-quinolinyl]oxy]methyl]-phenyl]sulphonyl]-N-[2-(4-morpholinyl)ethyl]-2(S)-pyrrolidinecarboxamide, hemisulphate [Example 48]”: the pA2 on bradykinin B2 receptor (setting [1]) was 8.5. This molecule also showed a Ki at human B2 receptor of 32 nM.
For “1-[[2,4-Dichloro-3-[[[4-(1H-imidazol-1-yl)-2-methyl-8-quinolinyl]oxy]methyl]-phenyl]sulphonyl]-N-[3-(4-morpholinyl)propyl]-2(S)-pyrrolidinecarboxamide, hemisulphate [Example 50]” the same measures were 8.3 and 30 nM.
For “1-[[2,4-Dichloro-3-[[[4-(1H-imidazol-1-yl)-2-methyl-8-quinolinyl]oxy]methyl]-phenyl]sulphonyl]-N-[3-(dimethylamino)propyl]-N-methyl-2(S)-pyrrolidine-carboxamide, hemisulphate [Example 61]” the same measures were 8.1 and 21 nM.
Take `Cc1cc(-n2ccnc2)c2cccc(OCc3c(Cl)ccc(S(=O)(=O)N4CCC[C@H]4C(=O)NCC4CCN(CCO)CC4)c3Cl)c2n1` [64 A]: the Kb at bradykinin B2 receptor (setting [2]) was 0.501 nM. Also, affinity on human B2 receptor was put at a Ki of 0.034 nM.
`Cc1cc(-n2ccnc2)c2cccc(OCc3c(Cl)ccc(S(=O)(=O)N4CCC[C@H]4C(=O)NCCCNC(=O)c4ccc(C(=N)N)cc4)c3Cl)c2n1` [Example 4, N-[3-[[4-(Aminoiminomethyl)benzoyl]amino]propyl]-1-[[2,4-dichloro-3-[[[4-(1H-imidazol-1-yl)-2-methyl-8-quinolinyl]oxy]methyl]phenyl]sulphonyl]-2(S)-pyrrolidinecarboxamide, bis methanesulphonate]: the Kb at bradykinin B2 receptor (setting [2]) was 0.1 nM. On human B2 receptor, this molecule yielded a Ki of 0.24 nM.
`Cc1cc(-n2ccnc2)c2cccc(OCc3c(Cl)ccc(S(=O)(=O)N4CCC[C@H]4C(=O)NCC4CCNCC4)c3Cl)c2n1` [Example 10, 1-[[2,4-Dichloro-3-[[[4-(1H-imidazol-1-yl)-2-methyl-8-quinolinyl]oxy]methyl]-phenyl]sulphonyl]-N-(4-piperidinylmethyl)-2(S)-pyrrolidinecarboxamide, ditartrate]: the Kb at bradykinin B2 receptor is 3.16 nM. Besides, the Ki on human B2 receptor came to 1 nM.
For `Cc1cc(-n2ccnc2)c2cccc(OCc3c(Cl)ccc(S(=O)(=O)N4CCC[C@H]4C(=O)NCC4CCN(CCOCCO)CC4)c3Cl)c2n1` [Example 12, 1-[[2,4-Dichloro-3-[[[4-(1H-imidazol-1-yl)-2-methyl-8-quinolinyl]oxy]methyl]-phenyl]sulphonyl]-N-[[1-[2-(2-hydroxyethoxy)ethyl]-4-piperidinyl]methyl]-2(S)-pyrrolidinecarboxamide, tartrate] the same measures were 2 nM and 0.47 nM.
With `Cc1cc(-n2ccnc2)c2cccc(OCc3c(Cl)ccc(S(=O)(=O)N4CCC[C@H]4C(=O)NCC4CCN(CCCO)CC4)c3Cl)c2n1` [Example 23, 1-[[2,4-Dichloro-3-[[[4-(1H-imidazol-1-yl)-2-methyl-8-quinolinyl]oxy]methyl]-phenyl]sulphonyl]-N-[[1-(3-hydroxypropyl)-4-piperidinyl]methyl]-2(S)-pyrrolidinecarboxamide, tartrate], the Kb at bradykinin B2 receptor was 0.794 nM. This molecule also returned a Ki at human B2 receptor of 0.45 nM.
Take `Cc1cc(-n2cncn2)c2cccc(OCc3c(Cl)ccc(S(=O)(=O)N4CCC[C@H]4C(=O)NCC4CCN(CCCO)CC4)c3Cl)c2n1` [Example 30, 1-[[2,4-Dichloro-3-[[[2-methyl-4-(1H-1,2,4-triazol-1-yl)-8-quinolinyl]oxy]-methyl]phenyl]sulphonyl]-N-[[1-(3-hydroxypropyl)-4-piperidinyl]methyl]-2(S)-pyrrolidinecarboxamide, tartrate]: the Kb on bradykinin B2 receptor was 2 nM. The molecule further had a Ki on human B2 receptor of 0.73 nM.
In the same order, the values of `Cc1cc(-n2ccnc2)c2cccc(OCc3c(Cl)ccc(S(=O)(=O)N4CCC[C@H]4C(=O)NCC4CCN(CCCCO)CC4)c3Cl)c2n1` [Example 32, 1-[[2,4-Dichloro-3-[[[4-(1H-imidazol-1-yl)-2-methyl-8-quinolinyl]oxy]methyl]-phenyl]sulphonyl]-N-[[1-(4-hydroxybutyl)-4-piperidinyl]methyl]-2(S)-pyrrolidinecarboxamide, tartrate] are 0.794 nM and 1.4 nM.
For `Cc1cc(-n2ccnc2)c2cccc(OCc3c(Cl)ccc(S(=O)(=O)N4C[C@H](O)C[C@H]4C(=O)NCC4CCNCC4)c3Cl)c2n1` [Example 42, 1-[[2,4-Dichloro-3-[[[4-(1H-imidazol-1-yl)-2-methyl-8-quinolinyl]oxy]methyl]-phenyl]sulphonyl]-4(R)-hydroxy-N-(4-piperidinemethyl)-2(S)-pyrrolidine-carboxamide, ditartrate], at bradykinin B2 receptor (setting [2]), the Kb is 5.01 nM. This molecule also came in with a Ki on human B2 receptor of 77 nM.
On to `Cc1cc(-n2ccnc2)c2cccc(OCc3c(Cl)ccc(S(=O)(=O)N4CCC[C@H]4C(=O)N(C)CCN(C)C)c3Cl)c2n1` [Example 73, 1-[[2,4-Dichloro-3-[[[4-(1H-imidazol-1-yl)-2-methyl-8-quinolinyl]oxy]methyl]-phenyl]sulphonyl]-N-[2-(dimethylamino)ethyl]-N-methyl-2(S)-pyrrolidine-carboxamide, tartrate], for which the Kb on bradykinin B2 receptor was 3.98 nM. At human B2 receptor, this molecule displayed a Ki of 10 nM.
In the same order, the values of `Cc1cc(-n2ccnc2)c2cccc(OCc3c(Cl)ccc(S(=O)(=O)N4CCC[C@H]4C(=O)NCCN4CCCC4)c3Cl)c2n1` [Example 75, 1-[[2,4-Dichloro-3-[[[4-(1H-imidazol-1-yl)-2-methyl-8-quinolinyl]oxy]methyl]-phenyl]sulphonyl]-N-[2-(1-pyrrolidinyl)ethyl]-2(S)-pyrrolidinecarboxamide, tartrate] are 5.01 nM and 2.8 nM.
In the same order, the values of `Cc1cc(-n2ccnc2)c2cccc(OCc3c(Cl)ccc(S(=O)(=O)N4CCC[C@H]4C(=O)NCCCN4CCCC4)c3Cl)c2n1` [Example 77, 1-[[2,4-Dichloro-3-[[[4-(1H-imidazol-1-yl)-2-methyl-8-quinolinyl]oxy]methyl]-phenyl]sulphonyl]-N-[3-(1-pyrrolidinyl)propyl]-2(S)-pyrrolidinecarboxamide, tartrate] are 2.51 nM and 6.1 nM.
For `Cc1cc(-n2cncn2)c2cccc(OCc3c(Cl)ccc(S(=O)(=O)N4CCC[C@H]4C(=O)NCCN(C)C)c3Cl)c2n1` [Example 83, 1-[[2,4-Dichloro-3-[[[2-methyl-4-(1H-1,2,4-triazol-1-yl)-8-quinolinyl]oxy]-methyl]phenyl]sulphonyl]-N-[2-(dimethylamino)ethyl]-2(S)-pyrrolidine-carboxamide, tartrate] the same measures were 12.6 nM and 14 nM.
Regarding `Cc1cc(-n2cncn2)c2cccc(OCc3c(Cl)ccc(S(=O)(=O)N4CCC[C@H]4C(=O)NCCCN4CCCC4)c3Cl)c2n1` [Example 87, 1-[[2,4-Dichloro-3-[[[2-methyl-4-(1H-1,2,4-triazol-1-yl)-8-quinolinyl]oxy]-methyl]phenyl]sulphonyl]-N-[3-(1-pyrrolidinyl)propyl]-2(S)-pyrrolidine-carboxamide, methanesulphonate], on bradykinin B2 receptor (setting [2]), the Kb is 6.31 nM. Also, the Ki on human B2 receptor worked out at 15 nM.
For `Cc1cc(-n2ccnc2)c2cccc(OCc3c(Cl)ccc(S(=O)(=O)N4CCC[C@H]4C(=O)NCc4ccccn4)c3Cl)c2n1` [Example 89, 1-[[2,4-Dichloro-3-[[[4-(1H-imidazol-1-yl)-2-methyl-8-quinolinyl]oxy]methyl]-phenyl]sulphonyl]-N-[(2-pyridinyl)methyl]-2(S)-pyrrolidinecarboxamide, methanesulphonate] the same measures were 10 nM and 55 nM.
